Test results taken from PMC12150293 (RSC Advances, 2025).
Where two headings read alike, the source gives them in different places. Each block holds one molecule with its values, some of them ahead of it.

What was measured:
MDA-MB-231 cells = test: MTT cytotoxicity assay on breast cancer cells; details: for IC50: read-out: MDA-MB-231 IC50
A549 cells = test: MTT cytotoxicity assay on non-small cell lung cancer cells; details: for IC50: read-out: A549 IC50
BEAS-2B cells = test: MTT cytotoxicity assay on normal human lung epithelial cells; details: 48 h, read-out: BEAS-2B IC50
EGFR^WT = EGFR^WT (Homo sapiens, UniProt P00533); test: EGFR^WT kinase inhibition assay; format: biochemical
Sequence of EGFR^WT (P00533 25-1210): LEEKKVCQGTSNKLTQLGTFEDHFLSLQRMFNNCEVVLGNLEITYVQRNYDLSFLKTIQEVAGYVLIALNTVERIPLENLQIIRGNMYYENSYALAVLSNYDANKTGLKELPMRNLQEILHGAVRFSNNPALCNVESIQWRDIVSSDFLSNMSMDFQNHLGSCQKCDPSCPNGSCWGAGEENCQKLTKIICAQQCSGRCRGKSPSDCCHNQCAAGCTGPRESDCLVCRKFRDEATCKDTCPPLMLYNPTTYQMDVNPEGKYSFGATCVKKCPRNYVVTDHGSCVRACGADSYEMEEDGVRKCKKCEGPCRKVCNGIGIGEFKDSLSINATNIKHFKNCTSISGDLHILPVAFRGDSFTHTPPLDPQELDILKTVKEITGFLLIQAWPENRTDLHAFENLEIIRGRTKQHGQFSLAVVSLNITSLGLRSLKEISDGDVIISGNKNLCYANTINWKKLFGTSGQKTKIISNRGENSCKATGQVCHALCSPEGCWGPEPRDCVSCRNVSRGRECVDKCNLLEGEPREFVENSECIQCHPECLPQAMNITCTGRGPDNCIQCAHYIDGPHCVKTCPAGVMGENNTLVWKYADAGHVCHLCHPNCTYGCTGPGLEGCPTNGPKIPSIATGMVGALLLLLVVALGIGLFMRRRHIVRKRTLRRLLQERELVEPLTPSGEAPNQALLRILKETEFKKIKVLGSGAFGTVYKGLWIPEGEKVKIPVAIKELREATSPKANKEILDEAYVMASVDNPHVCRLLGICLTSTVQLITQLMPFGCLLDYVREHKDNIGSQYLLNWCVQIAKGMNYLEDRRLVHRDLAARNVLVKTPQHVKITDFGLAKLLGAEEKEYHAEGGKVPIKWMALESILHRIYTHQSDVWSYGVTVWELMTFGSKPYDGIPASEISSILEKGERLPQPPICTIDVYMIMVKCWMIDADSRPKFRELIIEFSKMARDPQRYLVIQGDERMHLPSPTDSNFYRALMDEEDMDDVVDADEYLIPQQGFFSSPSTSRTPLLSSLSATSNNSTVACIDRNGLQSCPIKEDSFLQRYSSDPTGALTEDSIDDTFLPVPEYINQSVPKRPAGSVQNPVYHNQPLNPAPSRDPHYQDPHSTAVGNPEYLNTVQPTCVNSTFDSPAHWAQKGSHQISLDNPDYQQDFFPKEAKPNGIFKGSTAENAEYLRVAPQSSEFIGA

c-Myc [1] = test: mRNA expression; format: cell-based, human; details: MDA-MB-231 cells; reduction to
CD-44 = test: mRNA expression; format: cell-based, human; details: MDA-MB-231 cells; reduction to
CD-133 = test: mRNA expression; format: cell-based, human; details: MDA-MB-231 cells; reduction to
VEGF = test: mRNA expression; format: cell-based, human; details: MDA-MB-231 cells; reduction to
TGF [2] = test: mRNA expression; format: cell-based, human; details: MDA-MB-231 cells; reduction to
c-Myc [3] = test: mRNA expression; format: cell-based, human; details: A549 cells
TGF [4] = test: mRNA expression; format: cell-based, human; details: A549 cells
miRNA-132 [5] = test: miRNA-132 expression in MDA-MB-231 cells; format: cell-based, human; details: elevation
miRNA-200c [6] = test: miRNA-200c expression in MDA-MB-231 cells; format: cell-based, human; details: elevation
miRNA-132 [7] = test: miRNA-132 expression in A549 cells; format: cell-based, human; details: enhancement
miRNA-200c [8] = test: miRNA-200c expression in A549 cells; format: cell-based, human; details: enhancement
caspase-3 = test: Caspase-3 activation assay; format: cell-based, human; details: A549 cells, compound at its IC50 concentration, 48 h
caspase-9 = test: Caspase-9 activation assay; format: cell-based, human; details: A549 cells, compound at its IC50 concentration, 48 h
EGFR^L858R/T790M/C797S = EGFR^L858R/T790M/C797S (Homo sapiens, UniProt P00533, C797S/L858R/T790M); test: biochemical
Sequence of EGFR^L858R/T790M/C797S (P00533 25-1210 T790M/C797S/L858R): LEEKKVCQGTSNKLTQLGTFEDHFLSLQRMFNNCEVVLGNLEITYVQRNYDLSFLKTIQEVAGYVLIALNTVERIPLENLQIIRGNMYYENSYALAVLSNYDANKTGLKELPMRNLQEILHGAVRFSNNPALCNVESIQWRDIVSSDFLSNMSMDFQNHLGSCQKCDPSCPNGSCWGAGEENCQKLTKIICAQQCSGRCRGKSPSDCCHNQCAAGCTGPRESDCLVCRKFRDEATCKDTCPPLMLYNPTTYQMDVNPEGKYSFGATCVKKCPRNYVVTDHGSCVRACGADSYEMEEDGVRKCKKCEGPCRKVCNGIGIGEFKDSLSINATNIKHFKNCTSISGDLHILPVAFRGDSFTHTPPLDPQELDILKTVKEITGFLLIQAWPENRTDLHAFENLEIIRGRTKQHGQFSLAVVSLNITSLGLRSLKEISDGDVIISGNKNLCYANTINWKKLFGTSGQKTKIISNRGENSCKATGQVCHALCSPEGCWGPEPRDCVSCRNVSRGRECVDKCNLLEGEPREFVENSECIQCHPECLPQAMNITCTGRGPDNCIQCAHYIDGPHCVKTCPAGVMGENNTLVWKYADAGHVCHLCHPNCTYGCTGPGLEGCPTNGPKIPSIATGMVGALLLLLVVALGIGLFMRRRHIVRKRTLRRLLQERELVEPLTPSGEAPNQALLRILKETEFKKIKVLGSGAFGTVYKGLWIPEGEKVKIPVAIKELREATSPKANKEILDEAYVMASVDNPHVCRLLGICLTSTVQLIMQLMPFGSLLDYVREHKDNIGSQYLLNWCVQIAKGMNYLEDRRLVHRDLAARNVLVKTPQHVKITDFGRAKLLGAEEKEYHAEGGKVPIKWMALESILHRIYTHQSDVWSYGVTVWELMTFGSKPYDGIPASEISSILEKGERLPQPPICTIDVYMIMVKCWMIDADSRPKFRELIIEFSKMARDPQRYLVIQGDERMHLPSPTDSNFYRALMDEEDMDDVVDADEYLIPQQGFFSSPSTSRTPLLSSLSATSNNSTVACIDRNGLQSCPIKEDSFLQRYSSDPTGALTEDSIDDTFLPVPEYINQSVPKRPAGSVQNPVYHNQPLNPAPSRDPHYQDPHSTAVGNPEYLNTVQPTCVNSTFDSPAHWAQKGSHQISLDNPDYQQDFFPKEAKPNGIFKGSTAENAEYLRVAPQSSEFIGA

SMILES: O=C(Nc1ccc([N+](=O)[O-])cc1)C(c1ccc(C(F)(F)F)cc1)N(C(=O)c1ccc2ccccc2n1)c1ccccc1 (stereo not shown) [Compound 18, N-(2-((4-Nitrophenyl)amino)-2-oxo-1-(4-(trifluoromethyl)phenyl)ethyl)-N-phenylquinoline-2-carboxamide]
IC50 (MDA-MB-231 cells; Homo sapiens, MDA-MB-231, 48 h): 25.1 ± 1.9 µM
IC50 (A549 cells; Homo sapiens, A549, 48 h): 20.1 ± 1.4 µM
IC50 (BEAS-2B cells): 55.7 ± 3.5 µM

SMILES: Cc1ccc(N(C(=O)CNC(=O)c2ccccc2)C(C(=O)Nc2ccc([N+](=O)[O-])cc2)c2ccc(C(F)(F)F)cc2)cc1 (stereo not shown) [Compound 12, N-(2-((2-((4-Nitrophenyl)amino)-2-oxo-1-(4-(trifluoromethyl)phenyl)ethyl)(p-tolyl)amino)-2-oxoethyl)benzamide]
IC50 (MDA-MB-231 cells; Homo sapiens, MDA-MB-231, 48 h): 65.3 ± 4.7 µM
IC50 (A549 cells; Homo sapiens, A549, 48 h): 73.1 ± 6.6 µM
IC50 (BEAS-2B cells): 98.2 ± 8.1 µM

SMILES: Cc1ccc(N(C(=O)c2ccc3ccccc3n2)C(C(=O)Nc2ccc([N+](=O)[O-])cc2)c2ccc(C(F)(F)F)cc2)cc1 (stereo not shown) [Compound 19, N-(2-((4-Nitrophenyl)amino)-2-oxo-1-(4-(trifluoromethyl)phenyl)ethyl)-N-(p-tolyl)-quinoline-2-carboxamide]
IC50 (MDA-MB-231 cells; Homo sapiens, MDA-MB-231, 48 h): 73.1 ± 5.7 µM
IC50 (A549 cells; Homo sapiens, A549, 48 h): 46.2 ± 4.1 µM
IC50 (BEAS-2B cells): 50.1 ± 3.3 µM

SMILES: N.N.[Cl][Pt][Cl] [Cisplatin, cisplatin, reference compound]
IC50 (MDA-MB-231 cells; MTT assay, 48 h, mean ± SEM): 12.2 ± 0.8 µM
IC50 (A549 cells; MTT assay, 48 h, mean ± SEM): 10.1 ± 0.7 µM

IC50 (EGFR^WT): 0.0021 ± 1e-05 µM
IC50 (EGFR^L858R/T790M/C797S): 0.19 ± 0.05 µM
SMILES: O=C(Nc1ccc([N+](=O)[O-])cc1)C(c1ccc(C(F)(F)F)cc1)N(C(=O)c1ccccc1Cl)c1ccccc1 (stereo not shown) [Compound 5, 2-Chloro-N-(2-((4-nitrophenyl)amino)-2-oxo-1-(4-(trifluoromethyl)phenyl)ethyl)-N-phenylbenzamide]
expression of c-Myc compared to untreated control (c-Myc [1]): 0.36 fold
expression of CD-44 compared to untreated control (CD-44): 0.5 fold
expression of CD-133 compared to untreated control (CD-133): 0.7 fold
expression of VEGF compared to untreated control (VEGF): 0.5 fold
expression of TGF compared to untreated control (TGF [2]): 0.4 fold
fold reduction in the expression of c-Myc in comparison to untreated control (c-Myc [3]): 0.41 fold
fold reduction in the expression of TGF in comparison to untreated control (TGF [4]): 0.69 fold
miRNA-132 expression, fold change compared to control (miRNA-132 [5]): 3.8 fold
miRNA-200c expression, fold change compared to control (miRNA-200c [6]): 3.1 fold
miRNA-132 expression, fold change compared to control (miRNA-132 [7]): 2.4 fold
miRNA-200c expression, fold change compared to control (miRNA-200c [8]): 1.9 fold
upregulation of caspase-3 compared to the untreated control (caspase-3): 1.8 folds
upregulation of caspase-9 compared to the untreated control (caspase-9): 2.3 folds
IC50 (MDA-MB-231 cells; Homo sapiens, MDA-MB-231, 48 h): 10.1 ± 0.6 µM
fold more potent than 5-FU (MDA-MB-231 cells; MDA-MB-231 cells, ratio of IC50 values): 1.42 fold
fold more potent than 5-FU (A549 cells; A549 cells, ratio of IC50 values): 1.82 fold
IC50 (A549 cells; Homo sapiens, A549, 48 h): 6.2 ± 0.3 µM
IC50 (BEAS-2B cells): 70.4 ± 5.1 µM

SMILES: Cc1ccc(N(C(=O)/C=C/c2ccc(C(F)(F)F)cc2)C(C(=O)Nc2ccc([N+](=O)[O-])cc2)c2ccccc2)cc1 (stereo not shown) [Compound 24, (E)-N-(2-((4-Nitrophenyl)amino)-2-oxo-1-phenylethyl)-N-(p-tolyl)-3-(4-(trifluoromethyl)-phenyl)acrylamide]
IC50 (MDA-MB-231 cells; Homo sapiens, MDA-MB-231, 48 h): 22.1 ± 1.6 µM
IC50 (A549 cells; Homo sapiens, A549, 48 h): 20.4 ± 1.7 µM
IC50 (BEAS-2B cells): 54.2 ± 4.1 µM

SMILES: O=C(Nc1ccc([N+](=O)[O-])cc1)C(c1ccccc1)N(C(=O)/C=C/c1ccc(C(F)(F)F)cc1)c1ccccc1 (stereo not shown) [Compound 23, (E)-N-(2-((4-Nitrophenyl)amino)-2-oxo-1-phenylethyl)-N-phenyl-3-(4-(trifluoromethyl)-phenyl)acrylamide]
IC50 (MDA-MB-231 cells; Homo sapiens, MDA-MB-231, 48 h): 30.3 ± 2.4 µM
IC50 (A549 cells; Homo sapiens, A549, 48 h): 26.1 ± 2.1 µM
IC50 (BEAS-2B cells): 30.9 ± 2.3 µM

SMILES: O=C(Nc1ccc([N+](=O)[O-])cc1)C(c1ccc(C(F)(F)F)cc1)N(Cc1ccccc1)C(=O)Cc1ccccc1 (stereo not shown) [Compound 15, N-Benzyl-N-(2-((4-nitrophenyl)amino)-2-oxo-1-(4-(trifluoromethyl)phenyl)-ethyl)-2-phenyl-acetamide]
IC50 (MDA-MB-231 cells; Homo sapiens, MDA-MB-231, 48 h): 65.7 ± 5.4 µM
IC50 (A549 cells; Homo sapiens, A549, 48 h): 61.1 ± 4.5 µM
IC50 (BEAS-2B cells): 69.4 ± 4.7 µM

SMILES: O=c1[nH]cc(F)c(=O)[nH]1 [Compound 5-FU, 5-fluorouracil, reference compound]
IC50 (MDA-MB-231 cells; Homo sapiens, MDA-MB-231, 48 h): 14.4 ± 0.9 µM
IC50 (A549 cells; Homo sapiens, A549, 48 h): 11.3 ± 1.1 µM
IC50 (BEAS-2B cells): 7.2 ± 0.5 µM

SMILES: O=C(Nc1ccc([N+](=O)[O-])cc1)C(c1ccc(C(F)(F)F)cc1)N(C(=O)CNS(=O)(=O)c1ccccc1)c1ccccc1 (stereo not shown) [Compound 13, N-(4-Nitrophenyl)-2-(N-phenyl-2-(phenylsulfonamido)acetamido)-2-(4-(trifluoromethyl)-phenyl)acetamide]
IC50 (MDA-MB-231 cells; Homo sapiens, MDA-MB-231, 48 h): 73.9 ± 5.3 µM
IC50 (A549 cells; Homo sapiens, A549, 48 h): 64.1 ± 5.9 µM
IC50 (BEAS-2B cells): 98.5 ± 7.4 µM

SMILES: Cc1ccc(N(C(=O)CNS(=O)(=O)c2ccccc2)C(C(=O)Nc2ccc([N+](=O)[O-])cc2)c2ccc(C(F)(F)F)cc2)cc1 (stereo not shown) [Compound 14, N-(4-Nitrophenyl)-2-(2-(phenylsulfonamido)-N-(p-tolyl)acetamido)-2-(4-(trifluoromethyl)-phenyl)acetamide]
IC50 (MDA-MB-231 cells; Homo sapiens, MDA-MB-231, 48 h): 74.8 ± 6.1 µM
IC50 (A549 cells; Homo sapiens, A549, 48 h): 55.3 ± 4.2 µM
IC50 (BEAS-2B cells): 84.7 ± 6.9 µM

SMILES: O=C(NCC(=O)N(Cc1ccccc1)C(C(=O)Nc1ccc([N+](=O)[O-])cc1)c1ccc(C(F)(F)F)cc1)c1ccccc1 (stereo not shown) [Compound 16, N-(2-(Benzyl(2-((4-nitrophenyl)amino)-2-oxo-1-(4-(trifluoromethyl)phenyl)ethyl)amino)-2-oxoethyl)benzamide]
IC50 (MDA-MB-231 cells; Homo sapiens, MDA-MB-231, 48 h): 27.3 ± 1.5 µM
IC50 (A549 cells; Homo sapiens, A549, 48 h): 22.4 ± 0.8 µM
IC50 (BEAS-2B cells): 63.8 ± 4.8 µM

SMILES: O=C(Nc1ccc([N+](=O)[O-])cc1)C(c1ccc(C(F)(F)F)cc1)N(C(=O)c1ccccc1I)c1ccccc1 (stereo not shown) [Compound 7, 2-Iodo-N-(2-((4-nitrophenyl)amino)-2-oxo-1-(4-(trifluoromethyl)phenyl)ethyl)-N-phenyl-benzamide]
IC50 (MDA-MB-231 cells; Homo sapiens, MDA-MB-231, 48 h): 28.2 ± 1.4 µM
IC50 (A549 cells; Homo sapiens, A549, 48 h): 20.6 ± 1.5 µM
IC50 (BEAS-2B cells): 75.6 ± 5.8 µM

SMILES: Cc1ccc(N(C(=O)c2ccccc2I)C(C(=O)Nc2ccc([N+](=O)[O-])cc2)c2ccc(C(F)(F)F)cc2)cc1 (stereo not shown) [Compound 8, 2-Iodo-N-(2-((4-nitrophenyl)amino)-2-oxo-1-(4-(trifluoromethyl)phenyl)ethyl)-N-(p-tolyl)-benzamide]
IC50 (MDA-MB-231 cells; Homo sapiens, MDA-MB-231, 48 h): 27.1 ± 1.8 µM
IC50 (A549 cells; Homo sapiens, A549, 48 h): 20.5 ± 1.1 µM
IC50 (BEAS-2B cells): 62.2 ± 4.2 µM

SMILES: O=C(Nc1ccc([N+](=O)[O-])cc1)C(c1ccc(C(F)(F)F)cc1)N(C(=O)Cc1ccccc1)c1ccccc1 (stereo not shown) [Compound 9, 2-(N,2-Diphenylacetamido)-N-(4-nitrophenyl)-2-(4-(trifluoromethyl)phenyl)acetamide]
IC50 (MDA-MB-231 cells; Homo sapiens, MDA-MB-231, 48 h): 70.6 ± 6.1 µM
IC50 (A549 cells; Homo sapiens, A549, 48 h): 46.4 ± 2.8 µM
IC50 (BEAS-2B cells): 71.6 ± 5.7 µM

SMILES: O=C(Nc1ccc([N+](=O)[O-])cc1)C(c1ccc(C(F)(F)F)cc1)N(Cc1ccccc1)C(=O)CNS(=O)(=O)c1ccccc1 (stereo not shown) [Compound 17, N-Benzyl-N-(2-((4-nitrophenyl)amino)-2-oxo-1-(4-(trifluoromethyl)phenyl)ethyl)-2-(phenylsulfonamido)acetamide]
IC50 (MDA-MB-231 cells; Homo sapiens, MDA-MB-231, 48 h): 57 ± 4.8 µM
IC50 (A549 cells; Homo sapiens, A549, 48 h): 40.8 ± 2.8 µM
IC50 (BEAS-2B cells): 50.2 ± 3.4 µM

SMILES: Cc1ccc(N(C(=O)c2ccccc2Cl)C(C(=O)Nc2ccc([N+](=O)[O-])cc2)c2ccc(C(F)(F)F)cc2)cc1 (stereo not shown) [Compound 6, 2-Chloro-N-(2-((4-nitrophenyl)amino)-2-oxo-1-(4-(trifluoromethyl)phenyl)-ethyl)-N-(p-tolyl)benzamide]
IC50 (MDA-MB-231 cells; Homo sapiens, MDA-MB-231, 48 h): 54.2 ± 4.7 µM
IC50 (A549 cells; Homo sapiens, A549, 48 h): 39.9 ± 2.7 µM
IC50 (BEAS-2B cells): 50.1 ± 3.6 µM

SMILES: O=C(Nc1ccc([N+](=O)[O-])cc1)C(c1ccccc1)N(Cc1ccccc1)C(=O)/C=C/c1ccc(C(F)(F)F)cc1 (stereo not shown) [Compound 25, (E)-N-Benzyl-N-(2-((4-nitrophenyl)amino)-2-oxo-1-phenylethyl)-3-(4-(trifluoromethyl)-phenyl)acrylamide]
IC50 (MDA-MB-231 cells; Homo sapiens, MDA-MB-231, 48 h): 95.4 ± 8.1 µM
IC50 (A549 cells; Homo sapiens, A549, 48 h): 90.2 ± 8.5 µM
IC50 (BEAS-2B cells): 129 ± 8.7 µM

SMILES: O=C(NCC(=O)N(c1ccccc1)C(C(=O)Nc1ccc([N+](=O)[O-])cc1)c1ccc(C(F)(F)F)cc1)c1ccccc1 (stereo not shown) [Compound 11, N-(2-((2-((4-Nitrophenyl)amino)-2-oxo-1-(4-(trifluoromethyl)phenyl)ethyl)(phenyl)amino)-2-oxoethyl)benzamide]
IC50 (MDA-MB-231 cells; Homo sapiens, MDA-MB-231, 48 h): 60.2 ± 4.9 µM
IC50 (A549 cells; Homo sapiens, A549, 48 h): 53.9 ± 4.4 µM
IC50 (BEAS-2B cells): 82.1 ± 7.3 µM

SMILES: Cc1ccc(N(C(=O)Cc2ccccc2)C(C(=O)Nc2ccc([N+](=O)[O-])cc2)c2ccc(C(F)(F)F)cc2)cc1 (stereo not shown) [Compound 10, N-(4-Nitrophenyl)-2-(2-phenyl-N-(p-tolyl)acetamido)-2-(4-(trifluoromethyl)phenyl)-acetamide]
IC50 (MDA-MB-231 cells; Homo sapiens, MDA-MB-231, 48 h): 84.4 ± 6.9 µM
IC50 (A549 cells; Homo sapiens, A549, 48 h): 71.5 ± 6.8 µM
IC50 (BEAS-2B cells): 83.3 ± 6.8 µM
